6 molecules from patent publication US8889876B2, “Histone deacetylase inhibitors and uses thereof” (Jiangsu Hengyi Pharmaceutical Co., Ltd., priority 2008, dated 2014) can be followed below.

Usually inhibition stands for the drop in the measured response relative to a control, in per cent.

Molecules are shown by their SMILES.

Assay [1] has as its system histone deacetylase. Kind of assay: in vitro inhibition of histone deacetylase by HDAC inhibitor screening kit (Biovision K340-100). Type of assay: biochemical. How it is done:
An assay for determining the in vitro inhibition activity of the compound on histone deacetylase is conducted according to the specification of HDAC inhibitor screeing kid (Biovision Company/Catalog #K340-100). […]

In assay [2] the test system is Hut78 T-cell Leukemia cell. In words: CCK-8 proliferation inhibition, Hut78. The note with it: for inhibition at 10 µM / inhibition at 100 µM: Homo sapiens, read-out: Hut-78 (inhibition %); for inhibition at 10 µM: HuT78, 10 μM; for inhibition at 100 µM: HuT78, 100 μM. It is filed as cell-based. In a few lines: (§1)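 Compounds were tested at 100 μM and 10 μM, and inhibition of cell proliferation was measured with the CCK-8 method. Values are reported as percent inhibition at each concentration.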

Assay [3] has as its system PANC-1 human pancreatic cancer cells. In words: CCK-8 proliferation inhibition, PANC-1. The note with it: for inhibition at 10 µM / inhibition at 100 µM: Homo sapiens; for inhibition at 10 µM: PANC-1, 10 μM; for inhibition at 100 µM: PANC-1, 100 μM. Type of assay: cell-based. The method in brief:
as §1

In assay [4] the test system is Jurkat E6-1 human T-cell lymphoma. In words: CCK-8 proliferation inhibition, Jurkat E6-1. Type of assay: cell-based. The settings on record: for inhibition at 10 µM / inhibition at 100 µM: Homo sapiens; for inhibition at 10 µM: Jurkat E6.1, 10 μM; for inhibition at 100 µM: Jurkat E6.1, 100 μM. The method in brief: as §1
Assay [5] deals with K562 human chronic myeloid leukemia cells. Kind of assay: CCK-8 proliferation inhibition, K562. The settings on record: for inhibition at 10 µM / inhibition at 100 µM: Homo sapiens; for inhibition at 10 µM: K562, 10 μM; for inhibition at 100 µM: K562, 100 μM. It is filed as cell-based. The method in brief:
as §1

Assay [6] has as its system A549 human lung cancer cells. In words: CCK-8 proliferation inhibition, A549. Type of assay: cell-based. The settings on record: CCK-8 method; for inhibition at 10 µM / inhibition at 100 µM: Homo sapiens, A549. The method in brief:
as §1
Background: Formazan colour is commonly taken as a measure of viable cells.

The subject of assay [7] is MDA-MB-435s human breast cancer cells. Kind of assay: CCK-8 proliferation inhibition, MDA-MB-435s. It is filed as cell-based. The settings on record: CCK-8 method; for inhibition at 10 µM / inhibition at 100 µM: Homo sapiens, MDA-MB-435S. The method in brief: as §1
In assay [8] the test system is Hep3B2.1-7 human liver cancer cells. In words: CCK-8 proliferation inhibition, Hep3B2.1-7. It is filed as cell-based. The settings on record: CCK-8 method; for inhibition at 10 µM / inhibition at 100 µM: Homo sapiens, Hep3B. The method in brief:
as §1

For assay [9], the system named is PC-3 human prostate cancer. In words: CCK-8 proliferation inhibition, PC-3. It is filed as cell-based. The settings on record: CCK-8 method; for inhibition at 10 µM / inhibition at 100 µM: Homo sapiens. The method in brief: as §1
For assay [10], the system named is Colo320 human rectal cancer cells. In words: CCK-8 proliferation inhibition, Colo320. It is filed as cell-based. The settings on record: CCK-8 method; for inhibition at 10 µM / inhibition at 100 µM: Homo sapiens, COLO 320. The method in brief:
as §1

For `COc1cc(CCC(=O)NCc2ccc(C(=O)Nc3cccnc3N)cc2)cc(OC)c1OC` [V-54, N-(2-amino-3-pyridyl)-4-[3-(3,4,5-methoxyphenyl)propionylaminomethyl]benzamide], the “Inhibition rate(%)” value in assay [1] (3.91 μM) is given as 2.2%; in [1] (62.5 μM), 3.1%; in assay [1] (2 mM) it was 42.5%. The “Hut-78 (inhibition %)” value was 0.9% in assay [2] (10 μM) and 10.6% in assay [2] (100 μM). For the same molecule, the “PANC-1 (inhibition %)” value in assay [3] (10 μM) worked out at 15.6%; in [3] (100 μM), 11.7%. Also, the “Jurkat E6-1 (inhibition %)” value is on record as 2.9% in [4] (10 μM) and 5.8% in [4] (100 μM). The “K562 (inhibition %)” value in assay [5] (10 μM) amounted to 12.7%; in [5] (100 μM), 13.1%. Moreover, the figures for the “A549 (inhibition %)” value in assay [6] (compound concentration 10 μM) and in assay [6] (compound concentration 100 μM) were 7.5% and 12.8%, respectively. Also, the “435s(inhibition %)” value was 14.6% in [7] (compound concentration 10 μM) and 14.0% in assay [7] (compound concentration 100 μM). The “Hep3B (inhibition %)” value in assay [8] (compound concentration 10 μM) is listed as 4.2%; in assay [8] (compound concentration 100 μM), 4.7%. The “PC-3 (inhibition %)” value amounted to 5.6% in assay [9] (compound concentration 10 μM) and 5.9% in assay [9] (compound concentration 100 μM). Besides, the “Colo320 (inhibition %)” value in [10] (compound concentration 10 μM) is 6.8%; in assay [10] (compound concentration 100 μM), 2.7%.

`COc1cccc(/C=C/C(=O)NCc2ccc(C(=O)Nc3cccnc3N)cc2)c1` [V-91, N-(2-amino-3-pyridyl)-4-[(3-methoxycinnamoyl)aminomethyl]benzamide]: the figures for the “Inhibition rate(%)” value in [1] (3.91 μM), in [1] (62.5 μM) and in assay [1] (2 mM) were 10.1%, 47.8% and 81.8%, respectively. Also, the inhibition at 10 µM in assay [2] was determined as 26.8%; in assay [3] it was 2.4%; in [4], 23.7%; in [5] it was 37.4%; in assay [6] (compound concentration 10 μM), 17.7%; in assay [7] (compound concentration 10 μM) it was 25.9%. In addition, the inhibition at 10 µM in assay [8] (compound concentration 10 μM) was determined as 7.8%; in [9] (compound concentration 10 μM) it was 7.9%; in [10] (compound concentration 10 μM) it was 9.6%. For the same molecule, the inhibition at 100 µM in assay [2] turned out to be 68.3%; in assay [3], 8.5%; in assay [4] it was 89.9%; in [5], 81.6%; in assay [6] (compound concentration 100 μM), 48.9%; in [7] (compound concentration 100 μM), 71.2%. Besides, the inhibition at 100 µM in [8] (compound concentration 100 μM) is 63.6%; in assay [9] (compound concentration 100 μM), 24.2%; in [10] (compound concentration 100 μM), 27.6%.

As to `COc1cccc(/C=C/C(=O)NCc2ccc(C(=O)Nc3ccncc3N)cc2)c1` [V-92], the “Inhibition rate(%)” value in assay [1] (3.91 μM) was 24.0%; in [1] (62.5 μM) it was 56.1%; in [1] (2 mM), 65.7%. Moreover, the inhibition at 10 µM is 46.2% in assay [2]; 6.3% in [3]; 87.5% in [4]; 68.7% in assay [5]; 2.2% in assay [6] (compound concentration 10 μM); 23.7% in assay [7] (compound concentration 10 μM). Moreover, the inhibition at 10 µM amounted to 20.2% in assay [8] (compound concentration 10 μM), 41% in assay [9] (compound concentration 10 μM) and 6% in [10] (compound concentration 10 μM). Besides, the inhibition at 100 µM in [2] was 78.5%; in assay [3] it was 33.3%; in [4], 95.5%; in assay [5], 91.1%; in [6] (compound concentration 100 μM), 54.2%; in [7] (compound concentration 100 μM) it was 77.7%. Besides, the inhibition at 100 µM in assay [8] (compound concentration 100 μM) turned out to be 80.5%; in assay [9] (compound concentration 100 μM), 73.8%; in [10] (compound concentration 100 μM), 65.5%.

Regarding `COc1ccc(/C=C/C(=O)NCc2ccc(C(=O)Nc3cccnc3N)cc2)cc1OC` [V-93, N-(2-amino-3-pyridyl)-4-[(3,4-dimethoxycinnamoyl)aminomethyl]benzamide], the “Inhibition rate(%)” value in assay [1] (3.91 μM) came to 14.3%; in assay [1] (62.5 μM) it was 48.0%; in assay [1] (2 mM) it was 55.3%. Also, the inhibition at 10 µM in assay [2] is 27.2%; in assay [3], 9.8%; in [4], 23.4%; in [5] it was 23.7%; in assay [6] (compound concentration 10 μM), -2.5%; in assay [7] (compound concentration 10 μM), 16.3%. Also, the inhibition at 10 µM is 4.9% in assay [8] (compound concentration 10 μM), 41.6% in assay [9] (compound concentration 10 μM) and 6.1% in assay [10] (compound concentration 10 μM). In addition, the inhibition at 100 µM in [2] stood at 64.7%; in assay [3] it was 16.6%; in assay [4], 93.1%; in [5] it was 67.3%; in assay [6] (compound concentration 100 μM), 3.4%; in [7] (compound concentration 100 μM) it was 48.5%. The inhibition at 100 µM in [8] (compound concentration 100 μM) is 26.8%; in assay [9] (compound concentration 100 μM), 80.6%; in [10] (compound concentration 100 μM) it was 13.1%.

In the case of `COc1cccc(COC(=O)NCc2ccc(C(=O)Nc3ccncc3N)cc2)c1` [V-95], the “Inhibition rate(%)” value in [1] (3.91 μM) was determined as 17.2%; in assay [1] (62.5 μM), 46.7%; in assay [1] (2 mM), 90.6%. Further, the inhibition at 10 µM in assay [2] is 8%; in [3], 7%; in assay [4] it was 21.6%; in [5], 50.6%; in assay [6] (compound concentration 10 μM), -12.6%; in assay [7] (compound concentration 10 μM) it was 4.2%. Besides, the results for the inhibition at 10 µM in [8] (compound concentration 10 μM), in [9] (compound concentration 10 μM) and in [10] (compound concentration 10 μM) were 16.7%, 30.6% and -1.9%, respectively. The inhibition at 100 µM came to 58% in assay [2]; 48.7% in assay [3]; 93.8% in [4]; 71.9% in assay [5]; 48.3% in assay [6] (compound concentration 100 μM); 72.5% in assay [7] (compound concentration 100 μM). In addition, the inhibition at 100 µM in assay [8] (compound concentration 100 μM) was found to be 72%; in assay [9] (compound concentration 100 μM), 80%; in assay [10] (compound concentration 100 μM), 68.8%.

For `COc1ccc(COC(=O)NCc2ccc(C(=O)Nc3ccncc3N)cc2)cc1OC` [V-96], the figures for the “Inhibition rate(%)” value in assay [1] (3.91 μM), in [1] (62.5 μM) and in assay [1] (2 mM) were 14.0%, 42.2% and 85.0%, respectively. For the same molecule, the inhibition at 10 µM in assay [2] was -0.4%; in assay [3] it was -0.4%; in assay [4], 15.4%; in assay [5], 41.1%; in assay [6] (compound concentration 10 μM), -6.2%; in assay [7] (compound concentration 10 μM), 1.9%. The inhibition at 10 µM in [8] (compound concentration 10 μM) was -0.9%; in [9] (compound concentration 10 μM), 27.8%; in assay [10] (compound concentration 10 μM), -0.8%. Moreover, the inhibition at 100 µM in assay [2] was found to be 41.7%; in [3] it was 64.8%; in assay [4] it was 83.4%; in assay [5], 61.6%; in assay [6] (compound concentration 100 μM), 33.4%; in assay [7] (compound concentration 100 μM), 69.6%. Further, the inhibition at 100 µM in [8] (compound concentration 100 μM) turned out to be 35.2%; in assay [9] (compound concentration 100 μM), 53.3%; in assay [10] (compound concentration 100 μM), 27%.
